Assay results: patent US20140288043A1, “PYRAZOLOPYRIDINE COMPOUNDS” (Genentech, Inc., priority 2013, published 2014)

target: LRRK2 (Homo sapiens, UniProt Q5S007); test: LRRK2 protein kinase assay ([γ-33P] ATP, peptide substrate), KI values of Table 1; format: biochemical; settings: LRRK2 affinity values
Excerpt: All LRRK2 protein kinases were of human origin and were sourced from Invitrogen Corporation (Carlsbad, Calif. 92008 USA) unless otherwise indicated. The active mutant used was recombinant human, catalytic domain (amino acids 970-2527) containing a G2019S mutation, GST-tagged, expressed in insect cells (Invitrogen Cat#PV4881). The wild type used was recombinant human, catalytic domain (amino acids 970-2527) GST-tagged, expressed in insect cells (Invitrogen Cat#PV4873). The kinase dead mutant used was recombinant human, catalytic domain (amino acids 970-2527) containing a D1994A mutation, GST-tagged, expressed in insect cells (Invitrogen Cat#PM4041AE). No special measures were taken to activate any of the kinases.
All assays were carried out at room temperature (˜21° C.) and were linear with respect to time and enzyme concentration under the conditions used. Assays were performed for 180 min in a 96 well format. LRRK2 was present at a concentration of approximately 5 nM. The enzyme was diluted and assayed in 50 mM Tris-HCl pH7.5, 0.1 mM EGTA, 1 mM DTT and 10 mM MgCl2. The concentration of magnesium chloride in the assay was 10 mM. The [γ-33P] ATP (0.4 μCi/well) was used at 134 uM for G2019S mutant and at 57 μM for the wild type kinase in order to be at Km. The peptide substrate in the assay was […] at 100 μM.
The assays were initiated with Mg/ATP and stopped by the addition of 25 μl/well 50% orthophosphoric acid. Reactions were harvested onto Whatman P81 Unifilter Plates (Fisher Scientific. Loughborough, LE115RG, UK. Cat# FDU-105-020U) using a Tomtec harvester. (Tomtec Hamden, Conn. 06514. USA) Plates were counted using a Perkin Elmer Top Count NX7. (Perkin Elmer, Shelton Conn. 06484-4794 USA)
IC50 values of inhibitors were determined after carrying out assays at 10 different concentrations of each compound in duplicate.

LRRK2, sequence (Q5S007 whole entry G2019S, form open, the tested form may be a part): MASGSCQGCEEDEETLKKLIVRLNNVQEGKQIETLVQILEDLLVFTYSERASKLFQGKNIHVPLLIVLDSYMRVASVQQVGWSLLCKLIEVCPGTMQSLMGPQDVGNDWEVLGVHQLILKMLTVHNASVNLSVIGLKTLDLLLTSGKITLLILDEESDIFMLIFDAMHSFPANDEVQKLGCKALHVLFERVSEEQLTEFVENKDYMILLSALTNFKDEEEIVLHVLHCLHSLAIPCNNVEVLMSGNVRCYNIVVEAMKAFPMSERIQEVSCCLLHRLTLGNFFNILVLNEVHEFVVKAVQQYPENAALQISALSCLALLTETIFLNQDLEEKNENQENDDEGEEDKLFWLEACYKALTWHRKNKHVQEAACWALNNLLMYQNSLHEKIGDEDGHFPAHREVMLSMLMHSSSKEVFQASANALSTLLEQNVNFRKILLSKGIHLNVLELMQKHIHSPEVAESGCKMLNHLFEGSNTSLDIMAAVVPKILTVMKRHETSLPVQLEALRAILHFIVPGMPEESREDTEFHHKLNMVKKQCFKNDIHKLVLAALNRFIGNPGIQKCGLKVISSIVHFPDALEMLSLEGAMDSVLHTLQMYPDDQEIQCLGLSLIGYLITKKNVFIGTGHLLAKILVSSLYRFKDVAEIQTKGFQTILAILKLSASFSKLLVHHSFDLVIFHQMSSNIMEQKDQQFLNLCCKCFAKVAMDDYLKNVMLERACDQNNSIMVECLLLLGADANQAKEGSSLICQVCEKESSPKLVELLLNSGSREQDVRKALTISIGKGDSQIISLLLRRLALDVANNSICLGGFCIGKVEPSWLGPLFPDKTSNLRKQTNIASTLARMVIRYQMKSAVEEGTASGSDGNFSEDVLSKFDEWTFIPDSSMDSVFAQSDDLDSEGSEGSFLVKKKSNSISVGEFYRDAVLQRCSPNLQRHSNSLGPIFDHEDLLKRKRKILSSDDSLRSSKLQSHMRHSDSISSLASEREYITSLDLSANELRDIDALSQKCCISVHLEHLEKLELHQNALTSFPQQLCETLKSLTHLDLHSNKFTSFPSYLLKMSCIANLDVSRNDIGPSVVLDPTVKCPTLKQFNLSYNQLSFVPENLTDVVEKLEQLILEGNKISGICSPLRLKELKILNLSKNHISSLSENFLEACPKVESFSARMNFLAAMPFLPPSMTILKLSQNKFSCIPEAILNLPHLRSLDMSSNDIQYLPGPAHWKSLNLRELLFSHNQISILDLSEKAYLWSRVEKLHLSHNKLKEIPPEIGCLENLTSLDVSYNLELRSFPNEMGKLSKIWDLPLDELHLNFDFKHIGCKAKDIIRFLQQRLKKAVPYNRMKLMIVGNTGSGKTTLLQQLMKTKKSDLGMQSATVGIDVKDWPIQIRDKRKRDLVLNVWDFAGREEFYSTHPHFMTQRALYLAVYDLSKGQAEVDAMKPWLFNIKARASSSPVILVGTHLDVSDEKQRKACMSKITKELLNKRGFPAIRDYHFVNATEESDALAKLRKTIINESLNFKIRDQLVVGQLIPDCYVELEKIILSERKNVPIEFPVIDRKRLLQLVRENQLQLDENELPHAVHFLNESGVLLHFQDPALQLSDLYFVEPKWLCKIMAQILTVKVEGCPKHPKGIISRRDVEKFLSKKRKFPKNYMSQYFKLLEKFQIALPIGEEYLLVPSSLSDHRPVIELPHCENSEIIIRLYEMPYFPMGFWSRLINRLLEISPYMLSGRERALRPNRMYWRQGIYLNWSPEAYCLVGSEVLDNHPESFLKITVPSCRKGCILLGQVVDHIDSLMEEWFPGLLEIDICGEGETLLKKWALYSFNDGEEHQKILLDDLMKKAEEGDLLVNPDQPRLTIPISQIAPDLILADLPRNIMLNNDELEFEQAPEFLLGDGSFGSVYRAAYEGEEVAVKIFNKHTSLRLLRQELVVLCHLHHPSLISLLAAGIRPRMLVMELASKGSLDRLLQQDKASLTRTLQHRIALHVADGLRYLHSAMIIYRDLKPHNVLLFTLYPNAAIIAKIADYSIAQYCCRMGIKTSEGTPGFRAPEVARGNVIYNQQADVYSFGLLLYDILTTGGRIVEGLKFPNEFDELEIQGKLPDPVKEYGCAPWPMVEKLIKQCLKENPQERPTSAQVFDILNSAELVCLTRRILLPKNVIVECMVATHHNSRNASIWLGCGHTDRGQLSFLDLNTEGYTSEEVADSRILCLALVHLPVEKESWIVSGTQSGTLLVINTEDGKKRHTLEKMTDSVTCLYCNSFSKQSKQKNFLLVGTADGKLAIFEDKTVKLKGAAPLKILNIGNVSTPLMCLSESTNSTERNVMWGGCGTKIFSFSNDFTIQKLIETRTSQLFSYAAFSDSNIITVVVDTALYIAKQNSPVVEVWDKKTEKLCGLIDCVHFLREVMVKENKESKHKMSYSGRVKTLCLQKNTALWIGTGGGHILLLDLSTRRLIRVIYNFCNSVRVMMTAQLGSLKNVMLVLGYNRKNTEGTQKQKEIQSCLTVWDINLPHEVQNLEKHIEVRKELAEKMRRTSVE

| Structure (SMILES) | Ki [nM] |
| --- | --- |
| FC(F)(F)c1cc(-c2n[nH]c3ccnc(NC(C4CC4)C4CC4)c23)ncn1 [Compound 73, N-(dicyclopropylmethyl)-3-(6-(trifluoro-methyl)pyrimidin-4-yl)-1H-pyrazolo[4,3-c]pyridin-4-amine] | 2.5 |
| CC(C)Nc1nccc2[nH]nc(-c3cc(S(=O)(=O)C(C)C)ccn3)c12 [Compound 74, N-isopropyl-3-(4-(isopropylsulfonyl)pyridin-2-yl)-1H-pyrazolo[4,3-c]pyridin-4-amine] | 25.8 |
| Cc1nn(C)cc1-c1ccnc(-c2n[nH]c3ccnc(NC(C)C)c23)c1 [Compound 45, 3-(4-(1,3-dimethyl-1H-pyrazol-4-yl)pyridin-2-yl)-N-isopropyl-1H-pyrazolo[4,3-c]pyridin-4-amine] | 1.3 |
| CC1CC(Nc2nccc3[nH]nc(-c4cc(C(F)(F)F)ncn4)c23)CC(C)O1 (stereo not drawn) [Compound 68, N-(2,6-dimethyltetrahydro-2H-pyran-4-yl)-3-(6-(trifluoromethyl)pyrimidin-4-yl)-1H-pyrazolo[4,3-c]pyridin-4-amine] | 23.3 |
| CC(C)Nc1nccc2[nH]nc(-c3cn(C)nn3)c12 [Compound 8, N-isopropyl-3-(1-methyl-1H-1,2,3-triazol-4-yl)-1H-pyrazolo[4,3-c]pyridin-4-amine] | 5.2 |
| CCNc1nccc2[nH]nc(-c3ccncn3)c12 [Compound 19, N-ethyl-3-(pyrimidin-4-yl)-1H-pyrazolo[4,3-c]pyridin-4-amine] | 152 |
| CCNc1nccc2[nH]nc(-c3cc(C(F)(F)F)ccn3)c12 [Compound 21, N-ethyl-3-(4-(trifluoromethyl)pyridin-2-yl)-1H-pyrazolo[4,3-c]pyridin-4-amine] | 9.4 |
| CCNc1nccc2[nH]nc(-c3cn(C(C)C)nn3)c12 [Compound 9, N-ethyl-3-(1-isopropyl-1H-1,2,3-triazol-4-yl)-1H-pyrazolo[4,3-c]pyridin-4-amine] | 13.1 |
| CCNc1nccc2[nH]nc(-c3cn(CCOC)nn3)c12 [Compound 14, N-ethyl-3-(1-(2-methoxyethyl)-1H-1,2,3-triazol-4-yl)-1H-pyrazolo[4,3-c]pyridin-4-amine] | 22.5 |
| CC(C)Nc1nccc2[nH]nc(-c3cc(N4C[C@@H](F)[C@H](F)C4)ccn3)c12 [Compound 59, 3-(4-((3R,4R)-3,4-difluoropyrrolidin-1-yl)pyridin-2-yl)-N-isopropyl-1H-pyrazolo[4,3-c]pyridin-4-amine] | 3.9 |
| CC(C)Nc1nccc2[nH]nc(-c3nc(C4CC4)n(C)n3)c12 [Compound 42, 3-(5-cyclopropyl-1-methyl-1H-1,2,4-triazol-3-yl)-N-isopropyl-1H-pyrazolo[4,3-c]pyridin-4-amine] | 213 |
| CCNc1nccc2[nH]nc(-c3cc(C#N)ccn3)c12 [Compound 25, 2-(4-(ethylamino)-1H-pyrazolo[4,3-c]pyridin-3-yl)isonicotinonitrile] | 14.2 |
| CC(C)Nc1nccc2[nH]nc(-c3cc(C(F)(F)F)ncn3)c12 [Compound 24, N-isopropyl-3-(6-(trifluoromethyl)pyrimidin-4-yl)-1H-pyrazolo[4,3-c]pyridin-4-amine] | 9.7 |
| CC(C)Nc1nccc2[nH]nc(-c3cc(-c4cnn(C)c4)ccn3)c12 [Compound 35, N-isopropyl-3-(4-(1-methyl-1H-pyrazol-4-yl)pyridin-2-yl)-1H-pyrazolo[4,3-c]pyridin-4-amine] | 0.8 |
| CC(C)Nc1nccc2[nH]nc(-c3ccncn3)c12 [Compound 15, N-isopropyl-3-(pyrimidin-4-yl)-1H-pyrazolo[4,3-c]pyridin-4-amine] | 20.9 |
| FC(F)(F)c1cc(-c2n[nH]c3ccnc(NCC4CC4)c23)ncn1 [Compound 65, N-(cyclopropylmethyl)-3-(6-(trifluoromethyl)pyrimidin-4-yl)-1H-pyrazolo[4,3-c]pyridin-4-amine] | 20.2 |

Further lines, results first:

| Ki [nM] | Structure (SMILES) |
| --- | --- |
| 2.2 | CCOc1ccnc(-c2n[nH]c3ccnc(NC4CCOCC4)c23)c1 [Compound 50, 3-(4-ethoxypyridin-2-yl)-N-(tetrahydro-2H-pyran-4-yl)-1H-pyrazolo[4,3-c]pyridin-4-amine] |
| 16.4 | FC1(F)CCC(Nc2nccc3[nH]nc(-c4ccncn4)c23)CC1 [Compound 38, N-(4,4-difluorocyclohexyl)-3-(pyrimidin-4-yl)-1H-pyrazolo[4,3-c]pyridin-4-amine] |
| 4.6 | CC(C)Nc1nccc2[nH]nc(-c3cc(C4CCOC4)ccn3)c12 (stereo not drawn) [Compound 49, N-isopropyl-3-(4-(tetrahydrofuran-3-yl)pyridin-2-yl)-1H-pyrazolo[4,3-c]pyridin-4-amine] |
| 1.6 | CC(C)Nc1nccc2[nH]nc(-c3cc(N4CCOCC4)ccn3)c12 [Compound 3, N-isopropyl-3-(4-morpholinopyridin-2-yl)-1H-pyrazolo[4,3-c]pyridin-4-amine] |
| 4.5 | Cc1cc(S(C)(=O)=O)cc(-c2n[nH]c3ccnc(NC(C)C)c23)n1 [Compound 76, N-isopropyl-3-(6-methyl-4-(methylsulfonyl)pyridin-2-yl)-1H-pyrazolo[4,3-c]pyridin-4-amine] |
| 0.7 | Clc1ccnc(-c2n[nH]c3ccnc(NC4CCOCC4)c23)c1 [Compound 29, 3-(4-chloropyridin-2-yl)-N-(tetrahydro-2H-pyran-4-yl)-1H-pyrazolo[4,3-c]pyridin-4-amine] |
| 8.4 | CC(C)Nc1nccc2[nH]nc(-c3cc(C4CCN(C)CC4)ccn3)c12 [Compound 40, N-isopropyl-3-(4-(1-methylpiperidin-4-yl)pyridin-2-yl)-1H-pyrazolo[4,3-c]pyridin-4-amine] |
| 3.8 | N#Cc1ccnc(-c2n[nH]c3ccnc(NC4CCOCC4)c23)c1 [Compound 26, 2-(4-((tetrahydro-2H-pyran-4-yl)amino)-1H-pyrazolo[4,3-c]pyridin-3-yl)isonicotinonitrile] |
| 22.9 | FC1(F)CCC(Nc2nccc3[nH]nc(-c4cc(C(F)(F)F)ncn4)c23)CC1 [Compound 66, N-(4,4-difluorocyclohexyl)-3-(6-(trifluoro-methyl)pyrimidin-4-yl)-1H-pyrazolo[4,3-c]pyridin-4-amine] |
| 6 | CC(C)Nc1nccc2[nH]nc(-c3cc(S(C)(=O)=O)ccn3)c12 [Compound 72, N-isopropyl-3-(4-(methylsulfonyl)pyridin-2-yl)-1H-pyrazolo[4,3-c]pyridin-4-amine] |
| 39.1 | CCOc1cc(-c2n[nH]c3cc(C)nc(NC4CCOCC4)c23)ncn1 [Compound 58, 3-(6-ethoxypyrimidin-4-yl)-6-methyl-N-(tetrahydro-2H-pyran-4-yl)-1H-pyrazolo[4,3-c]pyridin-4-amine] |
| 1 | Cc1nccc(-c2n[nH]c3ccnc(NC4CCOCC4)c23)n1 [Compound 33, 3-(2-methylpyrimidin-4-yl)-N-(tetrahydro-2H-pyran-4-yl)-1H-pyrazolo[4,3-c]pyridin-4-amine] |
| 3.1 | c1ccc(-c2n[nH]c3ccnc(NC4CCOCC4)c23)nc1 [Compound 17, 3-(pyridin-2-yl)-N-(tetrahydro-2H-pyran-4-yl)-1H-pyrazolo[4,3-c]pyridin-4-amine] |
| 644 | Cc1cc2[nH]nc(-c3cc(C(=O)N(C)C)ccn3)c2c(NC2CCOCC2)n1 [Compound 60, N,N-dimethyl-2-(6-methyl-4-((tetrahydro-2H-pyran-4-yl)amino)-1H-pyrazolo[4,3-c]pyridin-3-yl)isonicotinamide] |
| 1.7 | CC(C)n1cc(-c2n[nH]c3ccnc(NC4CCOCC4)c23)nn1 [Compound 5, 3-(1-isopropyl-1H-1,2,3-triazol-4-yl)-N-(tetrahydro-2H-pyran-4-yl)-1H-pyrazolo[4,3-c]pyridin-4-amine] |
| 3.8 | CC(C)Nc1nccc2[nH]nc(-c3cc(C4CCOCC4)ncn3)c12 [Compound 47, N-isopropyl-3-(6-(tetrahydro-2H-pyran-4-yl)pyrimidin-4-yl)-1H-pyrazolo[4,3-c]pyridin-4-amine] |
| 12 | CC(C)Nc1nccc2[nH]nc(-c3cc(C4CCOC4)ncn3)c12 (stereo not drawn) [Compound 48, N-isopropyl-3-(6-(tetrahydrofuran-3-yl)pyrimidin-4-yl)-1H-pyrazolo[4,3-c]pyridin-4-amine] |
| 80.3 | CC(C)Nc1nccc2[nH]nc(-c3cc(C(=O)N4CCOCC4)ccn3)c12 [Compound 56, (2-(4-(isopropylamino)-1H-pyrazolo[4,3-c]pyridin-3-yl)pyridin-4-yl)(morpholino)methanone] |
| 20.3 | Cc1nc(-c2n[nH]c3ccnc(NC4CCC(F)(F)CC4)c23)cc(C(F)(F)F)n1 [Compound 67, N-(4,4-difluorocyclohexyl)-3-(2-methyl-6-(trifluoromethyl)pyrimidin-4-yl)-1H-pyrazolo[4,3-c]pyridin-4-amine] |
| 4.4 | CC(C)Nc1nccc2[nH]nc(-c3cc(C4CCCO4)ccn3)c12 (stereo not drawn) [Compound 53, N-isopropyl-3-(4-(tetrahydrofuran-2-yl)pyridin-2-yl)-1H-pyrazolo[4,3-c]pyridin-4-amine] |
